Test results published in US9877956B2, “Antiviral compounds and methods of use thereof” (Trana Discovery, Inc., priority 2014, dated 2018).
Values after ≈ are worked out from the molar mass of the structure shown. Values joined by “and” are separate entries in the source; they are usually repeats but may differ in a detail not shown here. Equal values may be shown once.

Columns and labels:
Assay type in all cases: cell-based
PBMC = assay: Toxicity in PBMC (Cell Titer 96)
Description: These compounds were further screened for activity in HIV-1-infected peripheral blood mononuclear cells (PBMC). The data (experiments were repeated, so duplicates are shown) is summarized in the tables below, and also in FIGS. 4A-B and 5A-B.

HIV-1 92/HT/599 = HIV-1 92/HT/599 replication in human PBMCs, reverse transcriptase in culture supernatants (RLU); settings: for RLU (Relative Light Units), SAMPLE: individual samples, listed as Trana 156
Description: (§1) In these studies, PHA-P stimulated PBMCs from three donors were pooled together and re-suspended in fresh tissue culture medium at 1×10^6 cells/mL and plated in the interior wells of a 96 well round bottom microplate at 50µl/well. A 100µL volume of 9 concentrations of compound serially diluted were transferred to the round-bottom 96 well plate containing the cells in triplicate. Fifty microliters (µL) of HIV-1 at a pre-determined dilution was added. Each plate contained cell control wells and virus control wells in parallel with the experimental wells. After 7 days in culture, efficacy was evaluated by measuring the reverse transcriptase in the culture supernatants and the cells were stained with the tetrazolium dye XTT to evaluate cytotoxicity.

HUMAN PBMCS = assay: Cytotoxicity in human PBMCs (XTT); settings: for TOXICITY VALUES (XTT - O.D. @ 450/650 nm), SAMPLE: individual samples, listed as Trana 156
Description: as §1

Compound: CC1(C)OC(=O)C(=Cc2ccc(I)o2)C(=O)O1 [HIT #156]
- TOXICITY VALUES (Cell Titer 96 - O.D. @ 490/650 nm), MEAN (PBMC; 100 μM): 1.613 O.D. and 0.847 O.D.
- % CC (PBMC; 100 μM, O.D. relative to cell control): 90.6% and 110.3%
- TOXICITY VALUES (Cell Titer 96 - O.D. @ 490/650 nm), SAMPLE (PBMC; 100 μM, individual samples): 1.651 O.D. and 1.594 O.D. and 0.795 O.D. and 0.787 O.D. and 0.978 O.D.
- TC 90% (PBMC; PBMC, Cell Titer 96): >100 µM
- TC 95% (PBMC; PBMC, Cell Titer 96): >100 µM
- % Virus Control (HIV-1 92/HT/599; 0.32 μg/ml): 93.58%
- Antiviral Test Values Mean RLU (HIV-1 92/HT/599; 0.32 μg/ml): 18048.7 RLU
- RLU (Relative Light Units), SAMPLE (HIV-1 92/HT/599; 0.32 μg/ml): 9520.0 RLU and 22416.0 RLU and 22210.0 RLU
- % Virus Control (HIV-1 92/HT/599; 1 μg/ml): 110.39%
- Antiviral Test Values Mean RLU (HIV-1 92/HT/599; 1 μg/ml): 21291.7 RLU
- RLU (Relative Light Units), SAMPLE (HIV-1 92/HT/599; 1 μg/ml): 24338.0 RLU and 22848.0 RLU and 16689.0 RLU
- % Virus Control (HIV-1 92/HT/599; 3.16 μg/ml): 62.76%
- Antiviral Test Values Mean RLU (HIV-1 92/HT/599; 3.16 μg/ml): 12105.7 RLU
- RLU (Relative Light Units), SAMPLE (HIV-1 92/HT/599; 3.16 μg/ml): 9530.0 RLU and 14041.0 RLU and 12746.0 RLU
- % Virus Control (HIV-1 92/HT/599; 9.99 μg/ml): 4.15%
- Antiviral Test Values Mean RLU (HIV-1 92/HT/599; 9.99 μg/ml): 800.0 RLU
- RLU (Relative Light Units), SAMPLE (HIV-1 92/HT/599; 9.99 μg/ml): 138.0 RLU and 48.0 RLU and 2214.0 RLU
- % Virus Control (HIV-1 92/HT/599; 31.6 μg/ml): 0.21%
- Antiviral Test Values Mean RLU (HIV-1 92/HT/599; 31.6 μg/ml): 41.3 RLU
- RLU (Relative Light Units), SAMPLE (HIV-1 92/HT/599; 31.6 μg/ml): 46.0 RLU and 42.0 RLU and 36.0 RLU
- % Virus Control (HIV-1 92/HT/599; 100 μg/ml): 0.31%
- Antiviral Test Values Mean RLU (HIV-1 92/HT/599; 100 μg/ml): 60.7 RLU
- RLU (Relative Light Units), SAMPLE (HIV-1 92/HT/599; 100 μg/ml): 68.0 RLU and 62.0 RLU and 52.0 RLU
- EC 25% (HIV-1 92/HT/599; HIV-1 92/HT/599, human PBMCs): 2.35 µg/mL (≈ 6.75 µM)
- EC 95% (HIV-1 92/HT/599; HIV-1 92/HT/599, human PBMCs): 9.82 µg/mL (≈ 28.2 µM)
- EC50 (HIV-1 92/HT/599; Human immunodeficiency virus 1, PBMC, read-out: EC50 (EC 50%), HIV-1 92/HT/599, human PBMCs): 4.06 µg/mL (≈ 11.7 µM)
- Therapeutic Index (TI) 25% (HIV-1 92/HT/599; TC/EC at 25%): 5.23
- Therapeutic Index (TI) 50% (HIV-1 92/HT/599; TC/EC at 50%): 4.43
- Therapeutic Index (TI) 95% (HIV-1 92/HT/599; TC/EC at 95%): <10.18
- % Cell Viability (HUMAN PBMCS; 0.32 μg/ml): 97.66%
- Cytotoxicity Test Values Mean OD @ 450/650 nm (HUMAN PBMCS; 0.32 μg/ml): 1.094 OD
- TOXICITY VALUES (XTT - O.D. @ 450/650 nm), SAMPLE (HUMAN PBMCS; 0.32 μg/ml): 1.0465 O.D. (2×) and 1.1893 O.D.
- % Cell Viability (HUMAN PBMCS; 1 μg/ml): 99.50%
- Cytotoxicity Test Values Mean OD @ 450/650 nm (HUMAN PBMCS; 1 μg/ml): 1.115 OD
- TOXICITY VALUES (XTT - O.D. @ 450/650 nm), SAMPLE (HUMAN PBMCS; 1 μg/ml): 1.1281 O.D. (2×) and 1.0879 O.D.
- % Cell Viability (HUMAN PBMCS; 3.16 μg/ml): 87.52%
- Cytotoxicity Test Values Mean OD @ 450/650 nm (HUMAN PBMCS; 3.16 μg/ml): 0.980 OD
- TOXICITY VALUES (XTT - O.D. @ 450/650 nm), SAMPLE (HUMAN PBMCS; 3.16 μg/ml): 0.9762 O.D. (2×) and 0.9889 O.D.
- % Cell Viability (HUMAN PBMCS; 9.99 μg/ml): 89.00%
- Cytotoxicity Test Values Mean OD @ 450/650 nm (HUMAN PBMCS; 9.99 μg/ml): 0.997 OD
- TOXICITY VALUES (XTT - O.D. @ 450/650 nm), SAMPLE (HUMAN PBMCS; 9.99 μg/ml): 1.1309 O.D. (2×) and 0.7293 O.D.
- % Cell Viability (HUMAN PBMCS; 31.6 μg/ml): 12.90%
- Cytotoxicity Test Values Mean OD @ 450/650 nm (HUMAN PBMCS; 31.6 μg/ml): 0.145 OD
- TOXICITY VALUES (XTT - O.D. @ 450/650 nm), SAMPLE (HUMAN PBMCS; 31.6 μg/ml): 0.1469 O.D. (2×) and 0.1399 O.D.
- % Cell Viability (HUMAN PBMCS; 100 μg/ml): 14.76%
- Cytotoxicity Test Values Mean OD @ 450/650 nm (HUMAN PBMCS; 100 μg/ml): 0.165 OD
- TOXICITY VALUES (XTT - O.D. @ 450/650 nm), SAMPLE (HUMAN PBMCS; 100 μg/ml): 0.1657 O.D. (2×) and 0.1646 O.D.
- TC 25% (HUMAN PBMCS; human PBMCs, XTT): 12.3 µg/mL (≈ 35.3 µM)
- TC50 (TC 50%) (HUMAN PBMCS; human PBMCs, XTT): 18.0 µg/mL (≈ 51.7 µM)
- TC 95% (HUMAN PBMCS; human PBMCs, XTT): <100 µg/mL
